Blank lines part the entries; values can stand above or below the molecule they belong to.
Molecular target: T1, FoF1-ATP synthase of cultured cells derived from human (HEK293) (Homo sapiens, UniProt P05496)
T1 construct: fractions containing cultured cell FoF1-ATP synthase obtained by the first centrifugation; endogenous in cells; host or cells: HEK293 (enzyme solubilised with GDN from the mitochondrial inner membrane and fractionated on sucrose density gradients)
Experiment: ATP hydrolysis activity, change in absorbance at 340 nm by NADH oxidation
Assay type: biochemical
Text: The FoF1-ATP synthase oligomer of the present invention has, in one embodiment, ATP synthesis activity or hydrolysis activity. These activities can be determined by methods well known to those skilled in the art. For example, ATP synthesis activity can be determined by using a luminescent reaction of the luciferin/luciferase system to determine the generated ATP. In addition, ATP hydrolysis activity can be determined based on absorbance changes at 340 nm by conjugating the hydrolysis reaction of ATP and the oxidation reaction from NADH (nicotinamide adenine dinucleotide) to NAD^+ in the presence of phosphoenolpyruvic acid, pyruvate kinase, and lactate dehydrogenase.
ATP hydrolysis activity of the fractions containing cultured cell FoF1-ATP synthase obtained by the first centrifugation under discontinuous density gradient of sucrose was determined. That is, the hydrolysis reaction of ATP with FoF1-ATP synthase was determined at 20° C. as change in absorbance at 340 nm by oxidation from NADH to NAD^+ conjugated with this reaction.
ATP hydrolysis activity of the samples contained in fraction 6-1 was determined in the same manner as described above in the presence or absence of oligomycin.
ATP hydrolysis activity of the samples collected from fraction 7 containing FoF1-ATP synthase tetramer and dimer was determined in the presence or absence of oligomycin, as in Example 1. If IF1, an endogenous inhibitory protein of mammalian ATP synthase, binds to FoF1-ATP synthase, the enzyme reaction is stopped. In order to release from FoF1-ATP synthase, samples collected from fraction 7 were mixed with 330 mM KCl and 100 mM Tris-HCl (pH 8.2). After incubation for 10 minutes at room temperature, ATP hydrolysis activity was determined. IF1 forms a dimer, binds between two FoF1-ATP synthase dimers, and stops the rotation of F1 present outside the membrane. As a result, ATP synthesis of the enzyme is stopped. Oligomycin binds to Fo of FoF1-ATP synthase and inhibits ATP synthesis.

Molecule: CC[C@H]1/C=C/C=C/C[C@@H](C)[C@H](O)[C@@](C)(O)C(=O)[C@@H](C)[C@H](O)[C@@H](C)C(=O)[C@@H](C)[C@H](O)[C@@H](C)/C=C/C(=O)O[C@@H]2[C@H](C)[C@H](CC1)O[C@]1(CC[C@H](C)[C@H](C[C@@H](C)O)O1)[C@H]2C [oligomycin]
ATP hydrolysis activity of the sample contained in fraction 6-1 in the presence of oligomycin (fraction 6-1 of first discontinuous sucrose density gradient centrifugation, HEK293, 20° C., FIG. 7): inhibited
ATP hydrolysis activity of the sample of fraction 7 in the presence of oligomycin (fraction 7 of third continuous sucrose density gradient centrifugation, HEK293, regardless of treatment to release IF1, FIG. 12): did not exhibit ATP hydrolysis activity

Enzyme inhibition of the ATP synthase contained in fraction 7 by IF1 (fraction 7, third centrifugation, activity compared with and without treatment to release IF1 (330 mM KCl, 100 mM Tris-HCl pH 8.2, 10 minutes), FIG. 12): undergoes enzyme inhibition by IF1
B1: IF1: ATP synthase inhibitory factor subunit 1, an endogenous inhibitory protein of a mammalian ATP synthase (protein, UniProt Q9UII2 26-106, looked up)
ATPase inhibitor, …: GSDQSENVDRGAGSIREAGGAFGKREQAEEERYFRAQSREQLAALKKHHEEEIVHHKKEIERLQKEIERHKQKIKMLKHDD

Reference: patent US20240352430A1, “FoF1-ATP SYNTHASE OLIGOMER” (KYOTO UNIVERSITY, priority 2021, published 2024)
